Assay results taken from the NIST ThermoML archive (doi:10.1016/j.fluid.2009.09.008).
Numbers after ± are expanded uncertainties.

Conditions: Liquid, Ebulliometric method (Recirculating still)

SMILES | vapor or sublimation pressure (263.15 K) | vapor or sublimation pressure (278.15 K) | vapor or sublimation pressure (293.15 K) | vapor or sublimation pressure (308.15 K) | vapor or sublimation pressure (323.15 K)
FC(C(F)(F)F)C(F)(F)F [1,1,1,2,3,3,3-heptafluoropropane] | 132.4 ± 1.2 kPa | 235.2 ± 1.2 kPa | 389.4 ± 1.2 kPa | 608.3 ± 1.2 kPa | 912.1 ± 1.2 kPa
FC(F)C(F)(F)F [pentafluoroethane] | 482.4 ± 1.2 kPa | 782.1 ± 1.2 kPa | 1205.6 ± 1.3 kPa | 1773.2 ± 1.3 kPa | 2531.1 ± 1.3 kPa
CCC [propane] | 345.9 ± 1.2 kPa | 552.7 ± 1.2 kPa | 839.7 ± 1.2 kPa | 1217.2 ± 1.2 kPa | 1714.5 ± 1.3 kPa
